ChEMBL document CHEMBL5223082, “Alkyl-Aryl-Vancomycins: Multimodal Glycopeptides with Weak Dependence on the Bacterial Metabolic State” (J Med Chem, 2021)
Activity calls are given as the source filed them. The rule behind the calls is not given here.

Legend:
Cell membrane [1] = assay: Induction of cytoplasmic membrane permeabilization in Bacillus subtilis assessed as increase in fluorescence intensity at 10 uM measured for 30 to 40 mins by Propidium iodide staining based fluorescence analysis; assay type: subcellular; conditions: time 30-40 min
Cell membrane [2] = assay: Induction of cytoplasmic membrane depolarization in Vancomycin-resistant Enterococci assessed as increase in fluorescence intensity at 10 uM measured for 35 to 40 mins by DiSC3(5) dye based fluorescence analysis; assay type: subcellular; conditions: Enterococcus, time 35-40 min
Staphylococcus aureus [3] = assay: Antibacterial activity against stationary phase of Methicillin-resistant Staphylococcus aureus ATCC 33591 assessed as log reduction in bacterial colonies at 4.5 uM incubated for 24 hrs in broth solution followed by incubation on agar plate for 48 hrs by spot plating method; assay type: functional; conditions: time 72 hrs
Staphylococcus aureus [4] = assay: Antibiofilm activity against Methicillin-resistant Staphylococcus aureus ATCC 33591 assessed as log reduction in bacterial viability within the biofilms at 20 uM incubated for 24 hrs in broth solution followed by culturing on agar plate for 24 hrs by spot plating method; assay type: functional; conditions: time 48 hrs
Staphylococcus aureus [5] = assay: Antibiofilm activity against Methicillin-resistant Staphylococcus aureus ATCC 33591 assessed as bacterial biofilm thickness at 20 uM incubated for 24 hrs by confocal laser scanning microscopy (reference value: 8 micrometer); assay type: functional
Staphylococcus aureus [6] = assay: Bactericidal activity against methicillin-resistant Staphylococcus aureus ATCC 33591 assessed as log reduction in bacterial colonies at 2XMIC incubated for 24 hrs in broth solution followed by culturing for 24 hrs on agar plate by spot plating method; assay type: functional; conditions: time 48 hrs
Staphylococcus aureus [7] = assay: Potency index, ratio of Vancomycin MIC to test compound MIC for antibacterial activity against Vancomycin-resistant Staphylococcus aureus 4; assay type: functional
Enterococcus [8] = assay: Potency index, ratio of Vancomycin MIC to test compound MIC for antibacterial activity against Vancomycin-resistant Enterococci ATCC 51575; assay type: functional
Staphylococcus aureus [9] = assay: Antibacterial activity against Methicillin-resistant Staphylococcus aureus ATCC 33591 assessed as log reduction in bacterial colonies at 10XMIC incubated for 1 hr in broth solution followed by plating on nutrient agar plate; assay type: functional
[10] = Toxicity in BALB/c mouse assessed as animal's survival rate at 55.5 mg/kg, ip measured for 14 days; assay type: organism-based; conditions: in vivo, time 14 day
Enterococcus [11] = assay: Antibacterial activity against Vancomycin-resistant Enterococci NR30903 assessed as inhibition of bacterial growth incubated for 18 to 24 hrs by CLSI microbroth dilution method; assay type: functional; conditions: time 18-24 hrs
[12] = Toxicity in BALB/c mouse assessed as adverse effects at 55.5 mg/kg, ip measured for 4 hrs; assay type: organism-based; conditions: in vivo
[13] = Toxicity in BALB/c mouse assessed as animal's survival rate at 55.5 mg/kg, iv measured for 14 days; assay type: organism-based; conditions: in vivo, time 14 day
[14] = Toxicity in BALB/c mouse assessed as adverse effects at 55.5 mg/kg, iv measured for 4 hrs; assay type: organism-based; conditions: in vivo
Staphylococcus aureus [15] = assay: Bactericidal activity against methicillin-resistant Staphylococcus aureus ATCC 33591 incubated for 24 hrs in broth solution followed by culturing for 24 hrs on agar plate by spot plating method; assay type: functional; conditions: time 48 hrs
Staphylococcus aureus [16] = assay: Antibacterial activity against stationary phase of Methicillin-resistant Staphylococcus aureus ATCC 33591 assessed as log reduction in bacterial colonies at 22 uM incubated for 24 hrs in broth solution followed by incubation on agar plate for 48 hrs by spot plating method; assay type: functional; conditions: time 72 hrs
Staphylococcus aureus [17] = assay: Potency index, ratio of Vancomycin MIC to test compound MIC for antibacterial activity against Vancomycin-resistant Staphylococcus aureus 1; assay type: functional
Staphylococcus aureus [18] = assay: Antibacterial activity against Methicillin-resistant Staphylococcus aureus ATCC 33591 assessed as inhibition of bacterial growth incubated for 18 to 24 hrs in presence of 50% human liver homogenate by CLSI microbroth dilution method; assay type: functional; conditions: ATCC 33591, Liver, time 18-24 hrs
Staphylococcus aureus [19] = assay: Antibacterial activity against stationary phase of Methicillin-resistant Staphylococcus aureus ATCC 33591 assessed as log reduction in bacterial colonies at 4.5 uM incubated for 12 hrs in broth solution followed by incubation on agar plate for 48 hrs by spot plating method; assay type: functional; conditions: time 60 hrs
Staphylococcus aureus [20] = assay: Antibacterial activity against Methicillin-resistant Staphylococcus aureus ATCC 33591 assessed as time duration of post-antibiotic effect for suppression of bacterial growth at 10XMIC incubated for 1 hr in broth solution followed by washing for drug removal and subsequent plating on nutrient agar plate; assay type: functional
Staphylococcus aureus [21] = assay: Antibacterial activity against Methicillin-resistant Staphylococcus aureus ATCC 33591 infected in BALB/c mouse thigh infection model assessed as log reduction in bacterial load at 12 mg/kg, ip starting at 1 hr post-infection and measured at 24 hrs post-drug treatment; assay type: functional
[22] = Cytotoxicity against human HEK293 cells assessed as cell viability at 0.5 to 30 uM incubated for 24 hrs by AlamarBlue assay; assay type: toxicity, cell-based; conditions: dose 0.5-30 µM, read-out: Activity
Staphylococcus aureus [23] = assay: Antibacterial activity against Methicillin-resistant Staphylococcus aureus ATCC 33591 persister cells assessed as log reduction in bacterial colonies at 9 uM incubated for 2 hrs in broth solution followed by incubation on agar plate for 48 hrs by spot plating method; assay type: functional; conditions: time 50 hrs
Enterococcus [24] = assay: Bactericidal activity against Vancomycin-resistant Enterococci assessed as log reduction in bacterial colonies at 2XMIC incubated for 24 hrs in broth solution followed by culturing for 24 hrs on agar plate by spot plating method; assay type: functional; conditions: time 48 hrs
Bacillus subtilis [25] = assay: Inhibition of cell wall biosynthesis in Bacillus subtilis 168 assessed as bubble-like formation on bacterial cell surface at PEC incubated for 15 mins by light microscopic analysis; assay type: functional, organism-based
HEK293 = assay: Cytotoxicity against human HEK293 cells at 30 uM incubated for 24 hrs by calceinAM/PI staining based fluorescence microscopy; assay type: toxicity, cell-based; conditions: hek293, 24 h
Cell membrane [26] = assay: Induction of cytoplasmic membrane depolarization in Bacillus subtilis assessed as increase in fluorescence intensity at 10 uM measured for 35 to 40 mins by DiSC3(5) dye based fluorescence analysis; assay type: subcellular; conditions: time 35-40 min
Enterococcus [27] = assay: Bactericidal activity against Vancomycin-resistant Enterococci assessed as log reduction in bacterial colonies at 4XMIC incubated for 24 hrs in broth solution followed by culturing for 24 hrs on agar plate by spot plating method; assay type: functional; conditions: time 48 hrs
Staphylococcus aureus [28] = assay: Antibacterial activity against Methicillin-resistant Staphylococcus aureus ATCC 33591 assessed as inhibition of bacterial growth preincubated compound with N,N'-diacetyl-L-Lys-D-Ala-D-Ala for 10 mins followed by incubation with bacterial culture for 18 to 24 hrs by CLSI microbroth dilution method; assay type: functional; conditions: time 1090-1450 min
[29] = Induction of hemolysis in human erythrocytes at 250 uM incubated for 1 hr by microtiter plater reader analysis; assay type: toxicity, cell-based, Erythrocyte; conditions: read-out: Activity
Staphylococcus aureus [30] = assay: Antibacterial activity against Methicillin-resistant Staphylococcus aureus ATCC 33591 assessed as inhibition of bacterial growth measured after 27 passages; assay type: functional
Staphylococcus aureus [31] = assay: Antibacterial activity against stationary phase of Methicillin-resistant Staphylococcus aureus ATCC 33591 assessed as log reduction in bacterial colonies at 9 uM incubated for 24 hrs in broth solution followed by incubation on agar plate for 48 hrs by spot plating method; assay type: functional; conditions: time 72 hrs
Bacillus subtilis [32] = assay: Antibacterial activity against Bacillus subtilis 168 assessed as concentration that requires for bacterial growth retardation measured for every 30 mins; assay type: functional
Staphylococcus aureus [33] = assay: Bactericidal activity against methicillin-resistant Staphylococcus aureus ATCC 33591 assessed as log reduction in bacterial colonies at 2XMIC incubated for 6 hrs in broth solution followed by culturing for 24 hrs on agar plate by spot plating method; assay type: functional; conditions: time 30 hrs

CCCCCCCCCCNC(=O)C[N+](C)(C)CCCNC(=O)c1ccc(CN[C@@]2(C)C[C@H](O[C@H]3[C@H](Oc4c5cc6cc4Oc4ccc(cc4Cl)[C@@H](O)[C@@H](NC(=O)[C@@H](CC(C)C)NC)C(=O)N[C@@H](CC(N)=O)C(=O)N[C@H]6C(=O)N[C@H]4C(=O)N[C@H](C(=O)N[C@H](C(=O)O)c6cc(O)cc(O)c6-c6cc4ccc6O)[C@H](O)c4ccc(c(Cl)c4)O5)O[C@H](CO)[C@@H](O)[C@@H]3O)O[C@@H](C)[C@H]2O)cc1
Activity (Cell membrane [1]): Active | Activity (Cell membrane [2]): Active | Activity (Staphylococcus aureus [3]): 2 log10CFU/ml | Activity (Staphylococcus aureus [4]): 2.2 log10CFU/ml | Activity (Staphylococcus aureus [5]): 3.5 um | Activity (Staphylococcus aureus [6]): 6 log10CFU/ml | Ratio (Staphylococcus aureus [7]): 1384 | Ratio (Enterococcus [8]): 1384 | Activity (Staphylococcus aureus [9]): 0.8 log10CFU/ml | survival at 336 h [10]: 100% | MIC (Enterococcus [11]): 0.45 µM | Activity [12]: Non-Toxic | survival at 336 h [13]: 100% | Activity [14]: Non-Toxic | MBC (Staphylococcus aureus [15]): 0.9 µM | Activity (Staphylococcus aureus [16]): 7 log10CFU/ml | Ratio (Staphylococcus aureus [17]): 1384 | MIC (Staphylococcus aureus [18]): 0.9 µM | Activity (Staphylococcus aureus [19]): 1.4 log10CFU/ml | Time (Staphylococcus aureus [20]): 23 h | Activity (Staphylococcus aureus [21]): 2.8 log10CFU/g | viability at 24 h, up to 30 µM [22]: 100% | Activity (Staphylococcus aureus [23]): 2 log10CFU/ml | Activity (Enterococcus [24]): 5 log10CFU/ml | inhibition (Bacillus subtilis [25]): Active | Activity (HEK293): Non-Toxic | Activity (Cell membrane [26]): Active | Activity (Enterococcus [27]): 5 log10CFU/ml | MIC (Staphylococcus aureus [28]): 0.9 µM | hemolysis at 1 h, 250 µM [29]: 1% | MIC (Staphylococcus aureus [30]): 0.9 µM | Activity (Staphylococcus aureus [31]): 2.4 log10CFU/ml | EC (Bacillus subtilis [32]): 0.06 µM | Activity (Staphylococcus aureus [33]): 4.3 log10CFU/ml
